Here are results for 34 molecules from patent publication US8394809B2, “Phenoxy-substituted pyrimidines as opioid receptor modulators” (priority 2009, dated 2013).

Read-outs that look alike come from different tables or passages of the source. Where only a bound is given, the exact number is not on record here.

One assay has as its target T1, mu opioid receptor (Rattus norvegicus, UniProt P33535).
T1 construct: the forebrains were homogenized in Tris buffer in a Teflon®-glass homogenizer; from tissue; host or cells: forebrain of male Wistar rats, particulate membrane preparation
Nature of the assay: Rat brain mu opioid receptor binding assay. The conditions noted are these: rat forebrain membranes, ~0.8 nM [3H]DAMGO; read-out: μ-binding Ki. Here is the method:
(§1) Procedure: Male, Wistar rats (150-250 g, VAF, Charles River, Kingston, N.Y.) were killed by CO2, and their brains were removed and placed immediately in ice cold Tris HCl buffer (50 mM, pH 7.4). The forebrains were separated from the remainder of the brain by a coronal transection, beginning dorsally at the colliculi and passing ventrally through the midbrain-pontine junction. After dissection, the forebrains were homogenized in Tris buffer in a Teflon®-glass homogenizer. The homogenate was diluted to a concentration of 1 g of forebrain tissue per 80 mL Tris and centrifuged at 39,000×g for 10 min. The pellet was resuspended in the same volume of Tris buffer containing 5 mM MgCl2 with several brief pulses from a Polytron homogenizer. This particulate preparation was used for the mu opioid binding assays. Following incubation with the mu selective peptide ligand, ˜0.8 nM [^3H]DAMGO, at 25° C. for 2.5 h in a 96-well plate with total assay volume of 1 mL, the plate contents were filtered through Wallac filtermat B sheets on a Tomtec 96-well harvester. […] To each sample area 2×40 μL of Betaplate Scint scintillation fluid (LKB) was added and the radioactivity was quantifed on a LKB (Wallac) 1205 BetaPlate liquid scintillation counter.
(§2) Analysis: The data from the scintillation counter was used to calculate either the % inhibition compared to control binding (when only a single concentration of test compound was evaluated) or a Ki value (when a range of concentrations was tested). Percent inhibition was calculated as: [(total dpm−test compound dpm)/(total dpm-nonspecific dpm)]*100. Kd and Ki values were calculated using GraphPad PRISM data analysis program.

Assay [1] concerns the target T2, delta opioid receptor (Rattus norvegicus, UniProt P33533).
T2 construct: the forebrains were homogenized in Tris buffer in a Teflon®-glass homogenizer; from tissue; host or cells: forebrain of male Wistar rats, particulate membrane preparation
Nature of the assay: Rat brain delta opioid receptor binding assay. To be noted: rat forebrain membranes. Here is the method:
as §1, with “delta” for “mu”, “ligand ˜4” for “ligand, ˜0.8”, “[^3H]DPDPE or 0.25 nM [^3H]naltrindole” for “[^3H]DAMGO,”, “total” for “total assay”, “2×50” for “2×40”, “quantified” for “quantifed”
as §2

The target in assay [2] is T3, delta opioid receptor (Mus musculus, UniProt P32300).
T3 construct: NG108-15 cell membranes were purchased from Applied Cell Sciences (Rockville, Md.); host or cells: NG108-15 cell membranes (purchased)
As to the kind of experiment: [35S]GTPγS binding assay in NG108-15 cell membranes (delta opioid functional assay). Type of assay: biochemical. To be noted: for GTPγS δ-Rel Efficacy @200 nM: 200 nM compound, relative to calculated max of SNC80 dose response. On the procedure: Methods: NG108-15 cell membranes were purchased from Applied Cell Sciences (Rockville, Md.). 5 mg/mL of membrane protein was suspended in 10 mM TRIS-HCl pH 7.2, 2 mM EDTA, 10% sucrose. Membranes were maintained at 4-8° C. A 1 mL volume of membranes was added into 10 mL cold binding assay buffer. The assay buffer contained 50 mM Tris, pH 7.6, 5 mM MgCl2, 100 mM NaCl, 1 mM DTT and 1 mM EGTA. The membrane suspension was homogenized twice with a Polytron, and centrifuged at 3000 rpm for 10 min. The supernatant was then centrifuged at 18,000 rpm for 20 min. Ten mL assay buffer was added into the pellet containing tube. The pellet and buffer were mixed with a Polytron.
Incubation procedure: The pellet membranes (75 μg/mL) were preincubated with SPA (10 mg/mL) at 25° C. for 45 min in the assay buffer. […] 200 nM of receptor agonists was used to stimulate [^35S]-GTPγS binding. The basal binding was tested in the absence of agonists and non-specific binding was tested in the presence of 10 μM unlabeled GTPγS.
Data % of Basal=(stimulated−non specific)*100/(basal−non specific). Relative Efficacy of a compound at 200 nM=(% of Basal of test compound at 200 nM)/(Calculated Max of SNC80 dose response. Curve in prism).

Where [3] appears, read: 0.25 nM [3H]naltrindole, read-out: δ-binding (Naltrindole ligand) Ki.
Setting [4] is: ~4 nM [3H]DPDPE, read-out: δ-binding (DPDPE ligand) Ki.

As a reminder, the Ki is the equilibrium dissociation constant of an inhibitor or competing ligand from its target. One may read the EC50 as the midpoint of the concentration-response curve. Low readings indicate higher potency in that assay, high ones lower potency in that assay.

T1 sequence (P33535 whole entry): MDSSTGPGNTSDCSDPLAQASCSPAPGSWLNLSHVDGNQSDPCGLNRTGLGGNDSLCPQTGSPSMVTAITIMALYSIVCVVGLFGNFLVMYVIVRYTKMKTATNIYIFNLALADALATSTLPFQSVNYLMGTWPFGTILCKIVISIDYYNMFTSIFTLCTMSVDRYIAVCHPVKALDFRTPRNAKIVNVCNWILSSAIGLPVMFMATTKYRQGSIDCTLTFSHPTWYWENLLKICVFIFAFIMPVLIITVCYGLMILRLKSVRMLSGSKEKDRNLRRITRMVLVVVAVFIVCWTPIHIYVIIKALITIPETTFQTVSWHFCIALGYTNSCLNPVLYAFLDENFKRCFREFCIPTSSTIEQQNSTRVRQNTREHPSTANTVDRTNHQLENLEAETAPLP
T2 sequence (P33533 whole entry): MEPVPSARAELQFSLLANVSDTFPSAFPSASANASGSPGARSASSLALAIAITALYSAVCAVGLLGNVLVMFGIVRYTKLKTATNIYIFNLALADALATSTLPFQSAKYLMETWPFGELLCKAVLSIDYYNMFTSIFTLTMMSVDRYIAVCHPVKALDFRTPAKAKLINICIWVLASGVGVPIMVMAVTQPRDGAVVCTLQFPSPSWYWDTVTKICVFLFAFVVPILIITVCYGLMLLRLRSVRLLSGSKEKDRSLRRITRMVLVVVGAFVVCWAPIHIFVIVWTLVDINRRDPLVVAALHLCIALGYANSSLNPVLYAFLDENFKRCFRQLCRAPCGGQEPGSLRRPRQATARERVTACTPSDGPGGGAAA
T3 sequence (P32300 whole entry): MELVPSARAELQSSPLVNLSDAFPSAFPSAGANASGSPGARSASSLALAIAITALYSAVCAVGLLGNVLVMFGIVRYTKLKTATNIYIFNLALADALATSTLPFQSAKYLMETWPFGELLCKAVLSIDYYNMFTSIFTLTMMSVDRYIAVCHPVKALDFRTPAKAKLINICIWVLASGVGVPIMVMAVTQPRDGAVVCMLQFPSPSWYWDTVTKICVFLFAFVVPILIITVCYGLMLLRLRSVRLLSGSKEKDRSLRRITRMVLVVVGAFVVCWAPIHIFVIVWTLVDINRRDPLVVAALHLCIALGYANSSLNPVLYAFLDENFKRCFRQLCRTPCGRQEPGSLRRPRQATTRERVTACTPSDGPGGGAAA

Regarding `COc1ccc(Oc2ncc(NCC3CCCNC3)c(Oc3ccc(OC)cc3)n2)cc1` (racemic) [Cpd 15], the Ki on mu opioid receptor amounted to 3240 nM; at delta opioid receptor [1] (setting [3]), 297 nM.
Take `COc1ccc(Oc2ncc(NCC3CCNC3)c(Oc3ccc(OC)cc3)n2)cc1` (racemic) [Cpd 22]: the values for the Ki on mu opioid receptor and at delta opioid receptor [1] (setting [4]) were 9280 nM and 357 nM, respectively.
The like results for `COc1ccc(Oc2ncc(NCC3CCCCN3)c(Oc3ccc(OC)cc3)n2)cc1` (racemic) [Cpd 25] were, in that order, 2510 nM and 489 nM.
With `COc1ccc(Oc2ncc(NC3CCN(Cc4ccccc4)C3)c(Oc3ccc(OC)cc3)n2)cc1` (racemic) [Cpd 27, (1-Benzyl-pyrrolidin-3-yl)-[2,4-bis-(4-methoxy-phenoxy)-pyrimidin-5-yl]-amine], the values for the Ki on mu opioid receptor and on delta opioid receptor [1] (setting [3]) were 3570 nM and 1020 nM, respectively.
Turning to `COc1ccc(Oc2ncc(NCC3CNCCO3)c(Oc3ccc(OC)cc3)n2)cc1` (racemic) [Cpd 31], the results for the Ki at mu opioid receptor and on delta opioid receptor [1] (setting [4]) were above 10000 nM and 723 nM, respectively.
For `COc1ccc(Oc2ncc(NC3CCCN(Cc4ccccc4)C3)c(Oc3ccc(OC)cc3)n2)cc1` (racemic) [Cpd 32], the results for the Ki on mu opioid receptor and at delta opioid receptor [1] (setting [4]) were above 10000 nM and 876 nM, respectively.
For the molecule `COc1ccc(Oc2ncc(NCCC3CCCNC3)c(Oc3ccc(OC)cc3)n2)cc1` (racemic) [Cpd 34], the Ki at mu opioid receptor is above 10000 nM; on delta opioid receptor [1] (setting [4]) it was 1120 nM.
As to `COc1ccc(Oc2ncc(NC3CCNC3)c(Oc3ccc(OC)cc3)n2)cc1` (racemic) [Cpd 36], the Ki at mu opioid receptor is above 10000 nM; on delta opioid receptor [1] (setting [3]) it was 2140 nM.
As for `CCN(CC)CCC(C)Nc1cnc(Oc2ccc(OC)cc2)nc1Oc1ccc(OC)cc1` (racemic) [Cpd 38], the Ki is above 10000 nM on mu opioid receptor and 3090 nM at delta opioid receptor [1] (setting [3]).
As to `COc1ccc(Oc2ncc(NC(C)c3ccncc3)c(Oc3ccc(OC)cc3)n2)cc1` (racemic) [Cpd 40], the Ki was above 10000 nM on mu opioid receptor and 4370 nM at delta opioid receptor [1] (setting [3]).
The like results for `COc1ccc(Oc2ncc(CNC[C@@H]3CCCN3C)c(Oc3ccc(OC)cc3)n2)cc1` [Cpd 8] were, in that order, 7160 nM and 92.5 nM.
On to `COc1ccc(Oc2ncc(NC[C@@H]3CCCN3C)c(Oc3ccc(OC)cc3)n2)cc1` [Cpd 9, [2,4-Bis-(4-methoxy-phenoxy)-pyrimidin-5-yl]-(1-methyl-pyrrolidin-2-(S)-ylmethyl)-amine], for which the Ki came to 9290 nM on mu opioid receptor and 115 nM at delta opioid receptor [1] (setting [3]).
Take `COc1ccc(Oc2ncc(NC[C@@H](N)CO)c(Oc3ccc(OC)cc3)n2)cc1` [Cpd 10]: the results for the Ki at mu opioid receptor and at delta opioid receptor [1] (setting [3]) were above 10000 nM and 130 nM, respectively.
The like results for `COc1ccc(Oc2ncc(NC3CC4CCC(C3)N4)c(Oc3ccc(OC)cc3)n2)cc1` (stereo not drawn) [Cpd 11] were, in that order, 2150 nM and 155 nM.
In the same order, the values of `COc1ccc(Oc2ncc(NC3CCNCC3)c(Oc3ccc(OC)cc3)n2)cc1` [Cpd 12] are 15200 nM and 174 nM.
In the same order, the values of `COc1ccc(Oc2ncc(NCC3CNC3)c(Oc3ccc(OC)cc3)n2)cc1` [Cpd 13] are above 10000 nM and 238 nM.
As to `COc1ccc(Oc2ncc(NC3CCC(N)CC3)c(Oc3ccc(OC)cc3)n2)cc1` (stereo not drawn) [Cpd 16], the results for the Ki at mu opioid receptor and at delta opioid receptor [1] (setting [3]) were 3860 nM and 455 nM, respectively.
The like results for `COc1ccc(Oc2ncc(NCC3CCNCC3)c(Oc3ccc(OC)cc3)n2)cc1` [Cpd 17] were, in that order, 12300 nM and 477 nM.
In the case of `COc1ccc(C=Cc2ncc(NC[C@@H]3CCCN3)c(Oc3ccc(OC)cc3)n2)cc1` [Cpd 19, {4-(4-Methoxyphenoxy)-2-[2-(4-methoxyphenyl)vinyl]-pyrimidin-5-yl}-pyrrolidin-2-(S)-ylmethylamine], the Ki on mu opioid receptor amounted to 2050 nM; at delta opioid receptor [1] (setting [4]) it was 232 nM.
In the same order, the values of `COc1ccc(Oc2nc([S+]([O-])c3ccc(OC)cc3)ncc2NC[C@@H]2CCCN2)cc1` (stereo partly drawn) [Cpd 20, [2-(4-Methoxybenzenesulfinyl)-4-(4-methoxyphenoxy)-pyrimidin-5-yl]-pyrrolidin-2-(S)-ylmethylamine] are above 10000 nM and 274 nM.
Turning to `COc1ccc(Oc2ncc(NC[C@H](N)CO)c(Oc3ccc(OC)cc3)n2)cc1` [Cpd 21, 2-(S)-Amino-3-[2,4-bis-(4-methoxy-phenoxy)-pyrimidin-5-ylamino]propan-1-ol], the figures for the Ki on mu opioid receptor and on delta opioid receptor [1] (setting [4]) were above 10000 nM and 348 nM, respectively.
As for `COc1ccc(Nc2ncc(NC[C@@H]3CCCN3)c(Oc3ccc(OC)cc3)n2)cc1` [Cpd 23, 4-(4-Methoxyphenoxy)-N^2-(4-methoxyphenyl)-N^6-pyrrolidin-2-(S)-ylmethyl-pyrimidine-2,5-diamine], the Ki at mu opioid receptor is above 10000 nM; on delta opioid receptor [1] (setting [4]) it was 363 nM.
On to `Fc1ccc(Oc2ncc(NCC3CCCN3)c(Oc3ccc(F)cc3)n2)cc1` (stereo not drawn) [Cpd 24], for which the values for the Ki on mu opioid receptor and at delta opioid receptor [1] (setting [4]) were above 10000 nM and 396 nM, respectively.
In the same order, the values of `COc1ccc(Oc2ncc(NCCC3CCNCC3)c(Oc3ccc(OC)cc3)n2)cc1` [Cpd 33] are above 10000 nM and 1110 nM.
The like results for `COc1ccc(Oc2ncc(NC3CNCCC3c3ccccc3)c(Oc3ccc(OC)cc3)n2)cc1` (stereo not drawn) [Cpd 35] were, in that order, above 10000 nM and 1430 nM.
Turning to `COc1ccc(Oc2ncc(NCc3ccc(-n4ccnc4)cc3)c(Oc3ccc(OC)cc3)n2)cc1` [Cpd 37, [2,4-Bis-(4-methoxy-phenoxy)-pyrimidin-5-yl]-(4-imidazol-1-yl-benzyl)-amine], the Ki is above 10000 nM at mu opioid receptor and 2700 nM on delta opioid receptor [1] (setting [3]).
Take `COc1ccc(Oc2ncc(NCc3ccncc3)c(Oc3ccc(OC)cc3)n2)cc1` [Cpd 39]: the Ki on mu opioid receptor was above 10000 nM; at delta opioid receptor [1] (setting [3]), 3530 nM.
The like results for `COc1ccc(Oc2ncc(NC3CCN(C(C)=O)CC3)c(Oc3ccc(OC)cc3)n2)cc1` [Cpd 41] were, in that order, above 10000 nM and 5320 nM.
Turning to `COc1ccc(Oc2ncc(NCc3ncc[nH]3)c(Oc3ccc(OC)cc3)n2)cc1` [Cpd 42], the values for the Ki at mu opioid receptor and at delta opioid receptor [1] (setting [4]) were above 10000 nM and 3810 nM, respectively.
In the same order, the values of `COc1ccc(Oc2ncc(NCc3nccs3)c(Oc3ccc(OC)cc3)n2)cc1` [Cpd 43] are above 10000 nM and 4220 nM.
Consider `COc1ccc(Oc2nc(Nc3cccnc3)ncc2NC[C@@H]2CCCN2)cc1` [Cpd 48], for which the “GTPγS δ-Rel Efficacy @200 nM” value at delta opioid receptor [2] is listed as 0.267.
For `COc1ccc(Oc2nc(Nc3cccc(F)c3)ncc2NC[C@@H]2CCCN2)cc1` [Cpd 49, N^2-(3-Fluoro-phenyl)-4-(4-methoxy-phenoxy)-N^5-pyrrolidin-2-(S)-ylmethyl-pyrimidine-2,5-diamine], the “GTPγS δ-Rel Efficacy @200 nM” value on delta opioid receptor [2] is 0.216.
For the molecule `COc1ccc(Oc2nc(Nc3nccs3)ncc2NC[C@@H]2CCCN2)cc1` [Cpd 50], on delta opioid receptor [2], the “GTPγS δ-Rel Efficacy @200 nM” value was 0.143.
Take `COc1ccc(Oc2nc(Oc3cccc(Cl)c3)ncc2NC[C@@H]2CCCN2)cc1` [Cpd 51]: at delta opioid receptor [2], the “GTPγS δ-opioid receptor Rel Efficacy” value amounted to 1.040 and the “GTPγS δ-Rel Efficacy @200 nM” value was 0.859. The same molecule displayed an EC50 at delta opioid receptor [2] (GTPγS δ-opioid receptor EC50) of 43 nM.
